Values quoted from earlier work as cited in patent US20090247493A1, “Regimens for Treatment of Conditions Related to Estrogen Deficiency” (Duramed Pharmaceuticals, Inc., priority 2006, published 2009).

Conditions: in a contraceptive regimen

Compound | dose roughly equivalent to 30 μg of ethinyl estradiol
C[C@]12CC[C@@H]3c4ccc(O)cc4CC[C@H]3[C@@H]1CC[C@@H]2O [17β-estradiol] | about 2,000 μg
C#C[C@]1(O)CC[C@H]2[C@@H]3CCc4cc(OC)ccc4[C@H]3CC[C@@]21C [mestranol] | about 60 μg
